Test results reported in patent US6486199B1, “Spiro and dispiro 1,2,4-trioxolane antimalarials” (Medicines for Malaria Venture MMV International Centre …, priority 2001, dated 2002).
In brackets after ≈: the same amount, converted by molar mass. Read-outs that look alike come from different tables or passages of the source. Marks after values point to notes of the source that are not given here.

Assays:
[1] = test system: chloroquine-sensitive NF54 strain of P. falciparum; experiment: in vitro screen against chloroquine-sensitive NF54 strain of P. falciparum; type: cell-based; settings: for IC50: Plasmodium falciparum
P. berghei [2] = experiment: 1-day Peters test against P. berghei in vivo; settings: for ED50 / ED90: Plasmodium berghei, 24 h; for ED90: read-out: P. berghei (1 day) ED90 po
[3] = test system: ANKA strain of P. Berghei; experiment: single dose STI in vivo screen in infected Moro SPF mice; settings: for antimalarial activity, overall assessment: overall judgement of in vitro and in vivo data of Table 2; for in vivo activity: 10 mg/kg po/sc data of Table 2; for inhibition in vivo at 10 mg/kg: Plasmodium berghei, 72 h
[4] = test system: chloroquine-resistant K1 strain of P. falciparum; experiment: in vitro screen against chloroquine-resistant K1 strain of P. falciparum; type: cell-based; settings: for IC50: Plasmodium falciparum; for in vitro potency: strains not distinguished
[5] = differential scanning calorimetry (DSC), thermal stability; type: physicochemical; settings: thermal decomposition
P. berghei [6] = experiment: 4-day Peters test against P. berghei in vivo; settings: for ED50: Plasmodium berghei, 96 h
[7] = test system: 21-day-old schistosomules of Schistosoma mansoni; experiment: effect on 21-day-old schistosomules in mice; type: in vivo; settings: single 200 mg/kg per os; for FWR (%): female worm reduction rate; for Mean female worm burden: mean ± standard deviation; for TWR (%): total worm reduction rate
Procedure: […] Each group was treated per os with OZ compounds at a single dose of 200 mg/kg. Untreated mice served as the control. All groups were killed 4 weeks after treatment and the liver and intestine were removed and separated. The liver and intestine were compressed and alive male and female worms could be seen and counted. The effect of the compounds was evaluated by mean total and female worm burden.

[8] = test system: adult schistosomes (49-day-old) of Schistosoma mansoni; experiment: effect on adult schistosomes (49-day-old) in mice; type: in vivo; settings: single 400 mg/kg per os
Procedure: Mice were infected with 100 Schistosoma mansoni cercariae […]. Each group was treated per os with OZ compounds at a single dose of 400 mg/kg. Untreated mice served as the control. All groups were killed 4 weeks after treatment and the liver and intestine were removed and separated. The liver and intestine were compressed and alive male and female worms could be seen and counted.

[9] = in vitro, NF54 strain, read-out: IC50 (ng/ml) NF54
[10] = percent reduction in parasitemia day 3 post-infection, single 10 mg/kg po
[11] = percent reduction in parasitemia day 3 post-infection, single 10 mg/kg sc
[12] = percent reduction in parasitemia day 3 post-infection, single 100 mg/kg po
[13] = percent reduction in parasitemia day 3 post-infection, single 100 mg/kg sc
[14] = single 100 mg/kg po, survival to day 30 = cure
[15] = single 100 mg/kg sc, survival to day 30 = cure
[16] = in vitro, K1 strain, read-out: IC50 (ng/ml) K1
[17] = NF54, read-out: IC50 (ng/ml) NF54
[18] = in vitro, K1 and NF54 strains not distinguished, read-out: IC50

## C[C@@H]1CC[C@H]2[C@@H](C)C(=O)O[C@@H]3O[C@@]4(C)CC[C@@H]1[C@]32OO4 [Artemisinin, artemisinin, reference compound]
[1]; [9]
  IC50: 1.9 ng/mL (≈ 6.73 nM)
P. berghei [2]; 1 day, po, read-out: P. berghei (1 day) ED50 po
  ED50: 9.1 mg/kg
P. berghei [2]; 1 day, po
  ED90: 14 mg/kg
[3]; [10]
  Activity (%) po: 65%
[3]; [11]
  Activity (%) sc: 87%
[3]; [12]
  Activity (%) po: 98%
[3]; [13]
  Activity (%) sc: 100%
[3]; single 10 mg/kg po
  Survival (days) po: 6.5 days
[3]; single 10 mg/kg sc
  Survival (days) sc: 7.0 days
[3]; [14]
  Survival (days) po: 7.3 days
[3]; [15]
  Survival (days) sc: 14 days
[4]; [16]
  IC50: 1.2 ng/mL (≈ 4.25 nM)

## O=C1CCC2(CC1)OOC1(CCCCC1)O2 [OZ02, 3-Oxo-7,14,15-trioxadispiro[5.1.5.2]pentadecane]
[1]; [9]
  IC50: 94 ng/mL (≈ 415 nM)
[5]
  Tm dec. (° C.): 193.3 °C
[3]
  antimalarial activity, overall assessment: less active
[3]; [12]
  Activity (%) po: 0/0%
[3]; [13]
  Activity (%) sc: 0/0%
[3]; [14]
  Survival (days) po: 5.0/5.0 days
[3]; [15]
  Survival (days) sc: 5.0/5.0 days
[4]; [16]
  IC50: > 100 ng/mL

## O=C(NN=C1CCC2(CC1)OOC1(O2)C2CC3CC(C2)CC1C3)Nc1ccccc1 (centres unmarked) [OZ30, Adamantane-2-spiro-3′-1′,2′,4′-trioxaspiro[4.5]decan-8′-one 4-phenylsemicarbazone]
[1]; [17]
  IC50: 1.3 ng/mL (≈ 3.16 nM)
[5]
  Tm dec. (° C.): 174.8 °C
P. berghei [6]; 4 day, po
  P. berghei (4 day) ED90 po: <10/>10 mg/kg
P. berghei [6]; 4 day, po, read-out: P. berghei (4 day) ED50 po
  ED50: < 10 mg/kg
[4]; K1, read-out: IC50 (ng/ml) K1
  IC50: 0.65 ng/mL (≈ 1.58 nM)
[4]; [18]
  IC50: < 5 ng/mL

## c1ccc(C2(c3ccccn3)OOC3(O2)C2CC4CC(C2)CC3C4)nc1 (centres unmarked) [OZ81, Adamantane-2-spiro-3′-5′,5′-bis(2′-pyridyl)-1′,2′,4′-trioxolane]
[1]; in vitro, NF54 strain
  IC50 (ng/ml) NF54: >10/>10 ng/ml
[5]
  Tm dec. (° C.): 150.7 °C
[3]
  antimalarial activity, overall assessment: inactive
[3]; [10]
  Activity (%) po: 0/0%
[3]; [11]
  Activity (%) sc: 0/0%
[4]; in vitro, K1 strain
  IC50 (ng/ml) K1: >10/>10 ng/ml

## C1CCC2(CC1)OOC1(CCC3(CC1)OOC1(CCCCC1)O3)O2 (centres unmarked) [OZ09, 7,12,19,20,23,24-Hexaoxatetraspiro[5.1.2.1.5.2.2.2]tetracosane]
[1]; [17]
  IC50: 39 ng/mL (≈ 115 nM)
[5]
  Tm dec. (° C.): 196.5 °C
[3]
  antimalarial activity, overall assessment: less active
[4]; K1, read-out: IC50 (ng/ml) K1
  IC50: 32 ng/mL (≈ 94 nM)

## CCOC(=O)CC1CCC2(CC1)OOC1(O2)C2CC3CC(C2)CC1C3 (centres unmarked) [OZ61, Adamantane-2-spiro-3′-8′-ethoxycarbonylmethyl-1′,2′,4′-trioxaspiro[4.5]decane]
[1]; in vitro, NF54 strain
  IC50 (ng/ml) NF54: 0.53 ng/mL (≈ 1.51 nM)
[5]
  Tm dec. (° C.): 161.7 °C
[3]
  in vivo activity: modest
[4]; in vitro, K1 strain
  IC50 (ng/ml) K1: 0.52 ng/mL (≈ 1.48 nM)

## C1COC2(CCC3(CC2)OOC2(O3)C3CC4CC(C3)CC2C4)O1 (centres unmarked) [OZ10, Adamantane-2-spiro-3′-1′,2′,4′,9′,12′-pentaoxadispiro[4.2.4.2]tetradecane]
[1]; [17]
  IC50: 0.67 ng/mL (≈ 2.08 nM)
P. berghei [2]; 1 day, sc
  P. berghei (1 day) ED90 sc: 2.2 mg/kg
P. berghei [2]; po, read-out: P. berghei (1 day) ED50 po
  ED50: 2.3 mg/kg
P. berghei [2]; po
  ED90: 6.3 mg/kg
P. berghei [2]; sc, read-out: P. berghei (1 day) ED50 sc
  ED50: 0.06 mg/kg
[5]
  Tm dec. (° C.): 159.4 °C
P. berghei [6]; 4 day, po
  P. berghei (4 day) ED90 po: 3.0 mg/kg
P. berghei [6]; 4 day, sc
  P. berghei (4 day) ED90 sc: 0.9 mg/kg
P. berghei [6]; po, read-out: P. berghei (4 day) ED50 po
  ED50: 1.3 mg/kg
P. berghei [6]; sc, read-out: P. berghei (4 day) ED50 sc
  ED50: 0.5 mg/kg
[3]; po, read-out: Activity (%) po
  inhibition in vivo at 10 mg/kg: 99.6%
[3]; sc, read-out: Activity (%) sc
  inhibition in vivo at 10 mg/kg: 100%
[4]; K1, read-out: IC50 (ng/ml) K1
  IC50: 0.4 ng/mL (≈ 1.24 nM)

## O=C1CCC2(CCO1)OOC1(O2)C2CC3CC(C2)CC1C3 (centres unmarked) [OZ17, Adamantane-2-spiro-3′-9′-oxo-1′,2′,4′,8′-tetraoxaspiro[4.6]undecane]
[7]
  FWR (%): 7%
  Mean female worm burden: 11.6 ± 3.3^a
  TWR (%): 23%
[1]; in vitro, NF54 strain
  IC50 (ng/ml) NF54: > 100 ng/mL
[5]
  Tm dec. (° C.): 158.4 °C
[8]
  Percentage of dead worm: 5.2 (10/191)
  Total dead worm: 10
[8]; total worm reduction rate
  TWR (%): 0%
[8]; x ± SD
  Mean total worm burden: 36.2 ± 13.8
[4]; in vitro, K1 strain
  IC50 (ng/ml) K1: 85 ng/mL (≈ 289 nM)

## c1ccc2c(c1)CCCC21OOC2(O1)C1CC3CC(C1)CC2C3 (centres unmarked) [OZ84, Adamantane-2-spiro-3′-1′,2′,4′-trioxolane-5′-spiro-1″-3″,4″-dihydro-2″H-naphthalene]
[1]; in vitro, NF54 strain
  IC50 (ng/ml) NF54: /1.9 ng/ml
[5]
  Tm dec. (° C.): 164.5 °C
[3]
  in vivo activity: good
[4]; in vitro
  in vitro potency: very active

## O=C(O)CC1CCC2(CC1)OOC1(O2)C2CC3CC(C2)CC1C3 (centres unmarked) [OZ78, Adamantane-2-spiro-3′-8′-carboxymethyl-1′,2′,4′-trioxaspiro[4.5]decane]
[1]; in vitro, NF54 strain
  IC50 (ng/ml) NF54: >10/>10 ng/ml
[5]
  Tm dec. (° C.): 157.5 °C
[3]
  in vivo activity: promising
[4]; in vitro, K1 strain
  IC50 (ng/ml) K1: >10/>10 ng/ml
[4]; in vitro
  in vitro potency: only weakly active

## C1CC2(CCO1)OOC1(O2)C2CC3CC(C2)CC1C3 (centres unmarked) [OZ22, Adamantane-2-spiro-3′-1′,2′,4′,8′-tetraoxaspiro[4.5]decane]
[7]
  FWR (%): 76%
  Mean female worm burden: 3.0 ± 1.9^b
  TWR (%): 75%
[1]; [17]
  IC50: 0.56 ng/mL (≈ 2.1 nM)
[3]; po, read-out: Activity (%) po
  inhibition in vivo at 10 mg/kg: 35%
[3]; sc, read-out: Activity (%) sc
  inhibition in vivo at 10 mg/kg: 99.6%
[4]; K1, read-out: IC50 (ng/ml) K1
  IC50: 0.32 ng/mL (≈ 1.2 nM)

## CCOC(=O)C1CCC2(CC1)OOC1(O2)C2CC3CC(C2)CC1C3 (centres unmarked) [OZ70, Adamantane-2-spiro-3′-8′-ethoxycarbonyl-1′,2′,4′-trioxaspiro[4.5]decane]
[1]; in vitro, NF54 strain
  IC50 (ng/ml) NF54: 1.1 ng/mL (≈ 3.27 nM)
[5]
  Tm dec. (° C.): 162.8 °C
[3]; single 10 mg/kg po
  Survival (days) po: 7.7/7.7 days
[3]; single 10 mg/kg sc
  Survival (days) sc: 7.7/7.7 days
[4]; in vitro, K1 strain
  IC50 (ng/ml) K1: 1.2 ng/mL (≈ 3.57 nM)

## c1ccc(C2CCC3(CC2)OOC2(CCC(c4ccccc4)CC2)O3)cc1 (centres unmarked) [OZ62, 3,11-Diphenyl-7,14,15-trioxadispiro[5.1.5.2]pentadecane]
[1]; [9]
  IC50: 28 ng/mL (≈ 76.8 nM)
[5]
  Tm dec. (° C.): 201.0 °C
[3]; [10]
  Activity (%) po: 0/0%
[3]; [11]
  Activity (%) sc: 0/0%
[4]; [16]
  IC50: 33 ng/mL (≈ 90.5 nM)

## Cc1ccc(S(=O)(=O)NN=C2CCC3(CC2)OOC2(O3)C3CC4CC(C3)CC2C4)cc1 (centres unmarked) [OZ39, Adamantane-2-spiro-3′-1′,2′,4′-trioxaspiro[4.5]decan-8′-one tosylhydrazone]
[1]; [9]
  IC50: 1.8 ng/mL (≈ 4.03 nM)
[5]
  Tm dec. (° C.): 146.9 °C
[3]; percent reduction in parasitemia day 3 post-infection, single 10 mg/kg po, read-out: Activity (%) po
  inhibition in vivo at 10 mg/kg: 61%
[3]; percent reduction in parasitemia day 3 post-infection, single 10 mg/kg sc, read-out: Activity (%) sc
  inhibition in vivo at 10 mg/kg: 99.3%
[4]; [16]
  IC50: 1.4 ng/mL (≈ 3.14 nM)
[4]; [18]
  IC50: < 2 ng/mL

## Fc1ccc(C2(c3ccc(F)cc3)OOC3(CCC(c4ccccc4)CC3)O2)cc1 (centres unmarked) [OZ66, 3,3-Bis(4-fluorophenyl)-8-phenyl-1,2,4-trioxaspiro[4.5]decane]
[1]; [9]
  IC50: 36 ng/mL (≈ 88.1 nM)
[5]
  Tm dec. (° C.): 198.5 °C
[3]
  antimalarial activity, overall assessment: completely inactive
[3]; [10]
  Activity (%) po: 0/0%
[3]; [11]
  Activity (%) sc: 0/0%
[4]; [16]
  IC50: 44 ng/mL (≈ 108 nM)
